According to PubChem BioAssay AID1963442 (Molecular Pharmacology Branch, DTP, NCI, 2024):

Test system: MPNST complex spheroid with HUVEC/MSC, growth, % test/control
Test: Anticancer human tumor MPNST cell line growth inhibition [Asc];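 note: compounds left on spheroids for seven days before reading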
Conditions: for IC50: curve of first compound; for viability, T/C: stronger effect = lower value
Procedure, shortened: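 Spheroid model: tumor line + HUVEC + hMSC. Single agents and combinations; top conc. at/near clinical Cmax (10 microM if undetermined), half-log dilutions. DMSO stocks at 800-fold test concentration.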

[1] = second compound 0.00316 µM, first compound 0.0316 µM
[2] = second compound 0.00316 µM, first compound 0.1 µM
[3] = second compound 0.00316 µM, first compound 0.316 µM
[4] = second compound 0.00316 µM, first compound 1 µM
[5] = second compound 0.00316 µM, first compound 3.16 µM
[6] = second compound 0.00316 µM, first compound 10 µM
[7] = second compound 0.01 µM, first compound 0.0316 µM
[8] = second compound 0.01 µM, first compound 0.1 µM
[9] = second compound 0.01 µM, first compound 0.316 µM
[10] = second compound 0.01 µM, first compound 1 µM
[11] = second compound 0.01 µM, first compound 3.16 µM
[12] = second compound 0.01 µM, first compound 10 µM
[13] = second compound 0.0316 µM, first compound 0.0316 µM
[14] = second compound 0.0316 µM, first compound 0.1 µM
[15] = second compound 0.0316 µM, first compound 0.316 µM
[16] = second compound 0.0316 µM, first compound 1 µM
[17] = second compound 0.0316 µM, first compound 3.16 µM
[18] = second compound 0.0316 µM, first compound 10 µM
[19] = second compound 0.1 µM, first compound 0.0316 µM
[20] = second compound 0.1 µM, first compound 0.1 µM
[21] = second compound 0.1 µM, first compound 0.316 µM
[22] = second compound 0.1 µM, first compound 1 µM
[23] = second compound 0.1 µM, first compound 3.16 µM
[24] = second compound 0.1 µM, first compound 10 µM
[25] = second compound 0.316 µM, first compound 0.0316 µM
[26] = second compound 0.316 µM, first compound 0.1 µM
[27] = second compound 0.316 µM, first compound 0.316 µM
[28] = second compound 0.316 µM, first compound 1 µM
[29] = second compound 0.316 µM, first compound 3.16 µM
[30] = second compound 0.316 µM, first compound 10 µM
[31] = second compound 1 µM, first compound 0.0316 µM
[32] = second compound 1 µM, first compound 0.1 µM
[33] = second compound 1 µM, first compound 0.316 µM
[34] = second compound 1 µM, first compound 1 µM
[35] = second compound 1 µM, first compound 3.16 µM
[36] = second compound 1 µM, first compound 10 µM

**Q.** Which results are given for C#Cc1c(F)ccc2cc(O)cc(-c3ncc4c(N5CC6CCC(C5)N6)nc(OCC56CCCN5CC(F)C6)nc4c3F)c12 (centres undefined) + CNC(C)C(=O)NC1CN(S(=O)(=O)c2cccc(S(=O)(=O)N3CCC4CCC(C(=O)NC(c5ccccc5)c5ccccc5)N4C(=O)C(NC(=O)C(C)NC)C3)c2)CCC2CCC(C(=O)NC(c3ccccc3)c3ccccc3)N2C1=O?
**A.** IC50 (second compound 0.00316 µM): > 10 µM; IC50 (second compound 0.01 µM): > 10 µM; IC50 (second compound 0.0316 µM): > 10 µM; IC50 (second compound 0.1 µM): > 10 µM; IC50 (second compound 0.316 µM): > 10 µM; IC50 (second compound 1 µM): > 10 µM; viability, T/C [1]: 65.6%; viability, T/C [2]: 43.9%; viability, T/C [3]: 57.7%; viability, T/C [4]: 78.2%; viability, T/C [5]: 75.3%; viability, T/C [6]: 53%; viability, T/C [7]: 96%; viability, T/C [8]: 99.5%; viability, T/C [9]: 60.1%; viability, T/C [10]: 63.5%; viability, T/C [11]: 73.1%; viability, T/C [12]: 46.2%; viability, T/C [13]: 103%; viability, T/C [14]: 66.8%; viability, T/C [15]: 69%; viability, T/C [16]: 70.5%; viability, T/C [17]: 52.1%; viability, T/C [18]: 56.6%; viability, T/C [19]: 56%; viability, T/C [20]: 67.8%; viability, T/C [21]: 78.2%; viability, T/C [22]: 64.1%; viability, T/C [23]: 63.2%; viability, T/C [24]: 53.1%; viability, T/C [25]: 73.2%; viability, T/C [26]: 75.1%; viability, T/C [27]: 70%; viability, T/C [28]: 58.3%; viability, T/C [29]: 60.3%; viability, T/C [30]: 67.3%; viability, T/C [31]: 76%; viability, T/C [32]: 79.5%; viability, T/C [33]: 69.4%; viability, T/C [34]: 82.5%; viability, T/C [35]: 62.2%; viability, T/C [36]: 84.3%

**Q.** Which results are given for C=C(F)C(=O)N1CCN(c2nc(OCC3CCCN3C)nc3c2CCN(c2cccc4cccc(Cl)c24)C3)CC1CC#N (centres undefined) + CNC(C)C(=O)NC1CN(S(=O)(=O)c2cccc(S(=O)(=O)N3CCC4CCC(C(=O)NC(c5ccccc5)c5ccccc5)N4C(=O)C(NC(=O)C(C)NC)C3)c2)CCC2CCC(C(=O)NC(c3ccccc3)c3ccccc3)N2C1=O?
**A.** IC50 (second compound 0.00316 µM): 3.75 µM; IC50 (second compound 0.01 µM): 4.2 µM; IC50 (second compound 0.0316 µM): 1.81 µM; IC50 (second compound 0.1 µM): 3.55 µM; IC50 (second compound 0.316 µM): 3.43 µM; IC50 (second compound 1 µM): 3.64 µM; viability, T/C [1]: 77%; viability, T/C [2]: 75.2%; viability, T/C [3]: 65.9%; viability, T/C [4]: 89.8%; viability, T/C [5]: 58.3%; viability, T/C [6]: 1.84%; viability, T/C [7]: 85.9%; viability, T/C [8]: 75.9%; viability, T/C [9]: 97.4%; viability, T/C [10]: 85%; viability, T/C [11]: 66.2%; viability, T/C [12]: 0.9%; viability, T/C [13]: 99.4%; viability, T/C [14]: 76.5%; viability, T/C [15]: 81.4%; viability, T/C [16]: 54.6%; viability, T/C [17]: 46.9%; viability, T/C [18]: 1%; viability, T/C [19]: 79.3%; viability, T/C [20]: 58.5%; viability, T/C [21]: 88.4%; viability, T/C [22]: 73.5%; viability, T/C [23]: 55.6%; viability, T/C [24]: 1.36%; viability, T/C [25]: 103%; viability, T/C [26]: 52.8%; viability, T/C [27]: 61%; viability, T/C [28]: 69.5%; viability, T/C [29]: 57%; viability, T/C [30]: 1.32%; viability, T/C [31]: 91.9%; viability, T/C [32]: 60.4%; viability, T/C [33]: 51%; viability, T/C [34]: 77.1%; viability, T/C [35]: 56.8%; viability, T/C [36]: 0.71%
